Measured values as given in ChEMBL document CHEMBL4004877, “Synthesis and biological evaluation of chalcone, dihydrochalcone, and 1,3-diarylpropane analogs as anti-inflammatory agents” (Bioorg Med Chem Lett, 2017).
≈ marks a conversion by molar mass, not a printed value.

Tests used:
RAW264.7 [1] = experiment: Antiinflammatory activity in mouse RAW264.7 cells assessed as inhibition of LPS induced iNOS-dependent nitric oxide production at 1.25 ug/ml after 24 hrs by Griess assay relative to control; assay type: functional; details: RAW264.7, 24 h
RAW264.7 [2] = experiment: Antiinflammatory activity in mouse RAW264.7 cells assessed as inhibition of LPS induced iNOS-dependent nitric oxide production at 2.5 ug/ml after 24 hrs by Griess assay relative to control; assay type: functional; details: RAW264.7, 24 h
RAW264.7 [3] = experiment: Antiinflammatory activity in mouse RAW264.7 cells assessed as inhibition of LPS induced iNOS-dependent nitric oxide production at 5 ug/ml after 24 hrs by Griess assay relative to control; assay type: functional; details: RAW264.7, 24 h
RAW264.7 [4] = experiment: Antiinflammatory activity in mouse RAW264.7 cells assessed as inhibition of LPS induced iNOS-dependent nitric oxide production at 10 ug/ml after 24 hrs by Griess assay relative to control; assay type: functional; details: RAW264.7, 24 h
RAW264.7 [5] = experiment: Antiinflammatory activity in mouse RAW264.7 cells assessed as inhibition of LPS induced iNOS-dependent nitric oxide production after 24 hrs by Griess assay; assay type: functional, cell-based; details: RAW264.7, 24 h
[6] = Cytotoxicity against LPS-stimulated mouse RAW264.7 cells assessed as cell viability at 1.25 ug/ml after 24 hrs by MTT assay relative to control; assay type: cell-based; details: LPS-stimulated RAW264.7 cells, read-out: Activity
[7] = Cytotoxicity against LPS-stimulated mouse RAW264.7 cells assessed as cell viability at 2.5 ug/ml after 24 hrs by MTT assay relative to control; assay type: cell-based; details: LPS-stimulated RAW264.7 cells, read-out: Activity
[8] = Cytotoxicity against LPS-stimulated mouse RAW264.7 cells assessed as cell viability at 5 ug/ml after 24 hrs by MTT assay relative to control; assay type: cell-based; details: LPS-stimulated RAW264.7 cells, read-out: Activity
[9] = Cytotoxicity against LPS-stimulated mouse RAW264.7 cells assessed as cell viability at 10 ug/ml after 24 hrs by MTT assay relative to control; assay type: cell-based; details: LPS-stimulated RAW264.7 cells, read-out: Activity

| Structure (SMILES) | inhibition at 1.25 µg/mL (RAW264.7 [1]) [%] | inhibition at 2.5 µg/mL (RAW264.7 [2]) [%] | inhibition at 5 µg/mL (RAW264.7 [3]) [%] | inhibition at 10 µg/mL (RAW264.7 [4]) [%] | IC50 (RAW264.7 [5]) [µg/mL] | viability at 24 h, 1.25 ug/ml [6] [%] | viability at 24 h, 2.5 ug/ml [7] [%] | viability at 24 h, 5 ug/ml [8] [%] | viability at 24 h, 10 ug/ml [9] [%] |
| --- | --- | --- | --- | --- | --- | --- | --- | --- | --- |
| COc1cc(C(=O)CCc2cccc(OC)c2OC)ccc1O | 0.1 | 4.4 | 15.9 | 33.3 | > 10 | 94.1 | 94.5 | 91.1 | 90.5 |
| COc1ccc(/C=C/C(=O)c2cccc(O)c2)cc1 | 9.4 | 2.1 | – | – | – | 99 | 99.1 | 63.3 | 41.2 |
| COc1ccc(CCCc2ccc(OC)c(OC)c2OC)c(O)c1 | 33.3 | 34.9 | 56.8 | 68.1 | 4.03 (≈ 12.1 µM) | 96.3 | 95.5 | 84.5 | 36.7 |
| COc1ccc(/C=C/C(=O)c2ccc(OC)c(OC)c2)cc1 | 5.1 | 52 | 52.1 | 85.5 | 2.43 (≈ 8.15 µM) | 97.2 | 93.1 | 78.9 | 73.9 |
| COc1ccc(CCC(=O)c2ccc(OC)c(OC)c2)cc1 | 14.1 | 32.5 | 54.4 | 57.2 | 4.35 (≈ 14.5 µM) | 99.1 | 98.6 | 95.1 | 90.6 |
| COc1ccc(/C=C/C(=O)c2ccc(OC)c(OC)c2)cc1OC | 0.2 | 1.7 | 2 | 3.3 | > 10 | 94 | 91.9 | 81.3 | 60.4 |
| COc1ccc(/C=C/C(=O)c2cccc(O)c2)c(OC)c1 | 1.6 | 2.3 | 9 | 53.9 | 9.42 (≈ 33.1 µM) | 97.7 | 74 | 63 | 61.6 |
| COc1cc(C(=O)/C=C/c2ccc3c(c2)OCO3)ccc1O | 5.3 | 0.6 | 49.1 | 51.8 | 6.3 (≈ 21.1 µM) | 100 | 85.3 | 81.1 | 72.7 |
| O=C(CCc1ccc2c(c1)OCO2)c1ccc(O)cc1 | 2 | 19.8 | 24.8 | 56.2 | 8.72 (≈ 32.3 µM) | 95.1 | 89 | 87.3 | 82.9 |
| COc1cccc(CCC(=O)c2cccc(O)c2)c1OC | 7.5 | 14.1 | 25 | 47.5 | > 10 | 96.4 | 94 | 93.4 | 91.4 |
| COc1ccc(CCCc2cccc(O)c2)c(OC)c1 | 16.2 | 18 | 24.6 | 78.8 | 6.92 (≈ 25.4 µM) | 98.5 | 97 | 95.9 | 67.9 |
| COc1ccc(C(=O)CCc2ccc(OC)c(OC)c2)c(O)c1 | 18.4 | 23.9 | 38.3 | 56.2 | 7.86 (≈ 24.8 µM) | 91.8 | 89 | 75.2 | 67.5 |
| COc1ccc(C(=O)/C=C/c2ccc3c(c2)OCO3)c(O)c1 | 50.2 | 5.7 | 3 | 8.6 | 1.25 (≈ 4.19 µM) | 96.4 | 91.7 | 75.2 | 72 |
| COc1ccc(/C=C/C(=O)c2ccc(OC)cc2O)cc1 | 9.4 | 3.5 | 54 | 78.2 | 4.73 (≈ 16.6 µM) | 93.3 | 72.3 | 75.2 | 72.6 |
| COc1cc(CCCc2cccc(O)c2)ccc1O | 10.9 | 15.9 | 18.1 | 80.4 | 7.13 (≈ 27.6 µM) | 100 | 99.5 | 97.7 | 76.1 |
| COc1ccc(C(=O)/C=C/c2cc(OC)ccc2OC)c(O)c1 | 7.4 | 0.7 | 6.1 | 26.6 | > 10 | 95.4 | 93.3 | 71.1 | 66.5 |
